# Test results as given in US12404262B2 (priority 2021, dated 2025).
# Details: 1.0% DMSO, 24-hour incubation at ambient temperature, maximum theoretical 100 μM; for pH 2 solubility: 0.1N HCl, first value of the cell; for pH 7 solubility: 1×PBS buffer (pH 7.4), second value of the cell
pH 2 solubility,pH 7 solubility,Structure (SMILES)
1/1 μM,1/1 μM,"COC(=O)CN(C)C(=O)N(c1nn(CC(F)(F)F)c2c(-c3ccc(C#CC(C)(C)S(C)(=O)=O)nc3[C@H](Cc3cc(F)cc(F)c3)NC(=O)Cn3nc(C(F)(F)F)c4c3C(F)(F)[C@@H]3C[C@H]43)ccc(Cl)c12)S(C)(=O)=O [Compound 43, methyl N-((4-chloro-7-(2-((S)-1-(2-((3bS,4aR)-5,5-difluoro-3-(trifluoromethyl)-3b,4,4a,5-tetrahydro-1H-cyclopropa[3,4]cyclopenta[1,2-c]pyrazol-1-yl)acetamido)-2-(3,5-difluorophenyl)ethyl)-6-(3-methyl-3-(methylsulfonyl)but-1-yn-1-yl)pyridin-3-yl)-1-(2,2,2-trifluoroethyl)-1H-indazol-3-yl)(methylsulfonyl)carbamoyl)-N-methylglycinate]"
4 μM,100 μM,"CC(C)(C#Cc1ccc(-c2ccc(Cl)c3c(N(C(=O)OCCOCCOP(=O)(O)O)S(C)(=O)=O)nn(CC(F)(F)F)c23)c([C@H](Cc2cc(F)cc(F)c2)NC(=O)Cn2nc(C(F)(F)F)c3c2C(F)(F)[C@@H]2C[C@H]32)n1)S(C)(=O)=O [Compound 106, 2-(2-(phosphonooxy)ethoxy)ethyl (4-chloro-7-(2-((S)-1-(2-((3bS,4aR)-5,5-difluoro-3-(trifluoromethyl)-3b,4,4a,5-tetrahydro-1H-cyclopropa[3,4]cyclopenta[1,2-c]pyrazol-1-yl)acetamido)-2-(3,5-difluorophenyl)ethyl)-6-(3-methyl-3-(methylsulfonyl)but-1-yn-1-yl)pyridin-3-yl)-1-(2,2,2-trifluoroethyl)-1H-indazol-3-yl)(methylsulfonyl)carbamate]"
72 μM,16 μM,"CC(C)(C#Cc1ccc(-c2ccc(Cl)c3c(N(C(=O)NCCN4CCNCC4)S(C)(=O)=O)nn(CC(F)(F)F)c23)c([C@H](Cc2cc(F)cc(F)c2)NC(=O)Cn2nc(C(F)(F)F)c3c2C(F)(F)[C@@H]2C[C@H]32)n1)S(C)(=O)=O [Compound 73, N—((S)-1-(3-(4-chloro-3-(N-((2-(piperazin-1-yl)ethyl)carbamoyl)methylsulfonamido)-1-(2,2,2-trifluoroethyl)-1H-indazol-7-yl)-6-(3-methyl-3-(methylsulfonyl)but-1-yn-1-yl)pyridin-2-yl)-2-(3,5-difluorophenyl)ethyl)-2-((3bS,4aR)-5,5-difluoro-3-(trifluoromethyl)-3b,4,4a,5-tetrahydro-1H-cyclopropa[3,4]cyclopenta[1,2-c]pyrazol-1-yl)acetamide]"
3 μM,17 μM,"CC(C)(C#Cc1ccc(-c2ccc(Cl)c3c(N(C(=O)NCCOP(=O)(O)O)S(C)(=O)=O)nn(CC(F)(F)F)c23)c([C@H](Cc2cc(F)cc(F)c2)NC(=O)Cn2nc(C(F)(F)F)c3c2C(F)(F)[C@@H]2C[C@H]32)n1)S(C)(=O)=O [Compound 41, 2-(3-(4-chloro-7-(2-((S)-1-(2-((3bS,4aR)-5,5-difluoro-3-(trifluoromethyl)-3b,4,4a,5-tetrahydro-1H-cyclopropa[3,4]cyclopenta[1,2-c]pyrazol-1-yl)acetamido)-2-(3,5-difluorophenyl)ethyl)-6-(3-methyl-3-(methylsulfonyl)but-1-yn-1-yl)pyridin-3-yl)-1-(2,2,2-trifluoroethyl)-1H-indazol-3-yl)-3-(methylsulfonyl)ureido)ethyl dihydrogen phosphate]"
62 μM,5 μM,"CC(C)(C#Cc1ccc(-c2ccc(Cl)c3c(N(C(=O)NCCN4CCOCC4)S(C)(=O)=O)nn(CC(F)(F)F)c23)c([C@H](Cc2cc(F)cc(F)c2)NC(=O)Cn2nc(C(F)(F)F)c3c2C(F)(F)[C@@H]2C[C@H]32)n1)S(C)(=O)=O [Compound 42, N—((S)-1-(3-(4-chloro-3-(N-((2-morpholinoethyl)carbamoyl)methylsulfonamido)-1-(2,2,2-trifluoroethyl)-1H-indazol-7-yl)-6-(3-methyl-3-(methylsulfonyl)but-1-yn-1-yl)pyridin-2-yl)-2-(3,5-difluorophenyl)ethyl)-2-((3bS,4aR)-5,5-difluoro-3-(trifluoromethyl)-3b,4,4a,5-tetrahydro-1H-cyclopropa[3,4]cyclopenta[1,2-c]pyrazol-1-yl)acetamide]"
54 μM,7 μM,"CC(C)(C#Cc1ccc(-c2ccc(Cl)c3c(N(C(=O)OCCCN)S(C)(=O)=O)nn(CC(F)(F)F)c23)c([C@H](Cc2cc(F)cc(F)c2)NC(=O)Cn2nc(C(F)(F)F)c3c2C(F)(F)[C@@H]2C[C@H]32)n1)S(C)(=O)=O [Compound 129, 3-aminopropyl (4-chloro-7-(2-((S)-1-(2-((3bS,4aR)-5,5-difluoro-3-(trifluoromethyl)-3b,4,4a,5-tetrahydro-1H-cyclopropa[3,4]cyclopenta[1,2-c]pyrazol-1-yl)acetamido)-2-(3,5-difluorophenyl)ethyl)-6-(3-methyl-3-(methylsulfonyl)but-1-yn-1-yl)pyridin-3-yl)-1-(2,2,2-trifluoroethyl)-1H-indazol-3-yl)(methylsulfonyl)carbamate]"
5 μM,1 μM,"CC(C)(C#Cc1ccc(-c2ccc(Cl)c3c(N(C(=O)O[C@H]4C[C@H](NC(=N)N)C4)S(C)(=O)=O)nn(CC(F)(F)F)c23)c([C@H](Cc2cc(F)cc(F)c2)NC(=O)Cn2nc(C(F)(F)F)c3c2C(F)(F)[C@@H]2C[C@H]32)n1)S(C)(=O)=O [Compound 128, trans-3-guanidinocyclobutyl (4-chloro-7-(2-((S)-1-(2-((3bS,4aR)-5,5-difluoro-3-(trifluoromethyl)-3b,4,4a,5-tetrahydro-1H-cyclopropa[3,4]cyclopenta[1,2-c]pyrazol-1-yl)acetamido)-2-(3,5-difluorophenyl)ethyl)-6-(3-methyl-3-(methylsulfonyl)but-1-yn-1-yl)pyridin-3-yl)-1-(2,2,2-trifluoroethyl)-1H-indazol-3-yl)(methylsulfonyl)carbamate]"
1 μM,100 μM,"CC(NC(=O)N(c1nn(CC(F)(F)F)c2c(-c3ccc(C#CC(C)(C)S(C)(=O)=O)nc3[C@H](Cc3cc(F)cc(F)c3)NC(=O)Cn3nc(C(F)(F)F)c4c3C(F)(F)[C@@H]3C[C@H]43)ccc(Cl)c12)S(C)(=O)=O)(C(=O)O)C(=O)O [Compound 52, 2-(3-(4-chloro-7-(2-((S)-1-(2-((3bS,4aR)-5,5-difluoro-3-(trifluoromethyl)-3b,4,4a,5-tetrahydro-1H-cyclopropa[3,4]cyclopenta[1,2-c]pyrazol-1-yl)acetamido)-2-(3,5-difluorophenyl)ethyl)-6-(3-methyl-3-(methylsulfonyl)but-1-yn-1-yl)pyridin-3-yl)-1-(2,2,2-trifluoroethyl)-1H-indazol-3-yl)-3-(methylsulfonyl)ureido)-2-methylmalonic acid]"
1 μM,82 μM,"C[C@H](CN(C)C(=O)N(c1nn(CC(F)(F)F)c2c(-c3ccc(C#CC(C)(C)S(C)(=O)=O)nc3[C@H](Cc3cc(F)cc(F)c3)NC(=O)Cn3nc(C(F)(F)F)c4c3C(F)(F)[C@@H]3C[C@H]43)ccc(Cl)c12)S(C)(=O)=O)OP(=O)(O)O [Compound 49, (R)-1-(3-(4-chloro-7-(2-((S)-1-(2-((3bS,4aR)-5,5-difluoro-3-(trifluoromethyl)-3b,4,4a,5-tetrahydro-1H-cyclopropa[3,4]cyclopenta[1,2-c]pyrazol-1-yl)acetamido)-2-(3,5-difluorophenyl)ethyl)-6-(3-methyl-3-(methylsulfonyl)but-1-yn-1-yl)pyridin-3-yl)-1-(2,2,2-trifluoroethyl)-1H-indazol-3-yl)-1-methyl-3-(methylsulfonyl)ureido)propan-2-yl dihydrogen phosphate]"
1 μM,13 μM,"CC(C)(C#Cc1ccc(-c2ccc(Cl)c3c(N(C(=O)NCCCCP(=O)(O)O)S(C)(=O)=O)nn(CC(F)(F)F)c23)c([C@H](Cc2cc(F)cc(F)c2)NC(=O)Cn2nc(C(F)(F)F)c3c2C(F)(F)[C@@H]2C[C@H]32)n1)S(C)(=O)=O [Compound 55, (4-(3-(4-chloro-7-(2-((S)-1-(2-((3bS,4aR)-5,5-difluoro-3-(trifluoromethyl)-3b,4,4a,5-tetrahydro-1H-cyclopropa[3,4]cyclopenta[1,2-c]pyrazol-1-yl)acetamido)-2-(3,5-difluorophenyl)ethyl)-6-(3-methyl-3-(methylsulfonyl)but-1-yn-1-yl)pyridin-3-yl)-1-(2,2,2-trifluoroethyl)-1H-indazol-3-yl)-3-(methylsulfonyl)ureido)butyl)phosphonic acid]"
45 μM,3 μM,"C[C@@H](C(=O)OCN(c1nn(CC(F)(F)F)c2c(-c3ccc(C#CC(C)(C)S(C)(=O)=O)nc3[C@H](Cc3cc(F)cc(F)c3)NC(=O)Cn3nc(C(F)(F)F)c4c3C(F)(F)[C@@H]3C[C@H]43)ccc(Cl)c12)S(C)(=O)=O)N(C)C [Compound 22, (N-(4-chloro-7-(2-((S)-1-(2-((3bS,4aR)-5,5-difluoro-3-(trifluoromethyl)-3b,4,4a,5-tetrahydro-1H-cyclopropa[3,4]cyclopenta[1,2-c]pyrazol-1-yl)acetamido)-2-(3,5-difluorophenyl)ethyl)-6-(3-methyl-3-(methylsulfonyl)but-1-yn-1-yl)pyridin-3-yl)-1-(2,2,2-trifluoroethyl)-1H-indazol-3-yl)methylsulfonamido)methyl dimethyl-L-alaninate]"

Structure (SMILES),pH 2 solubility,pH 7 solubility
"CC(C)(C#Cc1ccc(-c2ccc(Cl)c3c(N(C(=O)NCCCP(=O)(O)O)S(C)(=O)=O)nn(CC(F)(F)F)c23)c([C@H](Cc2cc(F)cc(F)c2)NC(=O)Cn2nc(C(F)(F)F)c3c2C(F)(F)[C@@H]2C[C@H]32)n1)S(C)(=O)=O [Compound 54-1, (3-(3-(4-chloro-7-(2-((S)-1-(2-((3bS,4aR)-5,5-difluoro-3-(trifluoromethyl)-3b,4,4a,5-tetrahydro-1H-cyclopropa[3,4]cyclopenta[1,2-c]pyrazol-1-yl)acetamido)-2-(3,5-difluorophenyl)ethyl)-6-(3-methyl-3-(methylsulfonyl)but-1-yn-1-yl)pyridin-3-yl)-1-(2,2,2-trifluoroethyl)-1H-indazol-3-yl)-3-(methylsulfonyl)ureido)propyl)phosphonic acid]",1 μM,14 μM
